± gives the uncertainty stated by the source.
Assay: xn = mol fraction of the nth substance listed

OC1OC[C@@H](O)[C@H](O)[C@H]1O (some centres not stated) + O + CCCCCCCCCC[n+]1ccn(C)c1.[Br-]
viscosity (298.15 K, 101 kPa, x1 = 0.0001909, x3 = 0.001813): 0.998 ± 0.015 mPa·s | viscosity (298.15 K, 101 kPa, x1 = 0.0001999, x3 = 0.003572): 1.112 ± 0.015 mPa·s | viscosity (298.15 K, 101 kPa, x1 = 0.0002133, x3 = 0.005429): 1.247 ± 0.016 mPa·s | viscosity (298.15 K, 101 kPa, x1 = 0.0002286, x3 = 0.007128): 1.391 ± 0.017 mPa·s | viscosity (298.15 K, 101 kPa, x1 = 0.0003836, x3 = 0.001812): 1.001 ± 0.015 mPa·s | viscosity (298.15 K, 101 kPa, x1 = 0.0003893, x3 = 0.005428): 1.254 ± 0.016 mPa·s | viscosity (298.15 K, 101 kPa, x1 = 0.0003978, x3 = 0.003572): 1.116 ± 0.015 mPa·s | viscosity (298.15 K, 101 kPa, x1 = 0.000437, x3 = 0.007127): 1.398 ± 0.017 mPa·s | viscosity (298.15 K, 101 kPa, x1 = 0.0005688, x3 = 0.001812): 1.005 ± 0.015 mPa·s | viscosity (298.15 K, 101 kPa, x1 = 0.0005861, x3 = 0.003571): 1.123 ± 0.015 mPa·s | viscosity (298.15 K, 101 kPa, x1 = 0.0005867, x3 = 0.005427): 1.262 ± 0.016 mPa·s | viscosity (298.15 K, 101 kPa, x1 = 0.0006133, x3 = 0.007125): 1.404 ± 0.017 mPa·s | viscosity (298.15 K, 101 kPa, x1 = 0.0007539, x3 = 0.001812): 1.012 ± 0.015 mPa·s | viscosity (298.15 K, 101 kPa, x1 = 0.0007591, x3 = 0.00357): 1.129 ± 0.015 mPa·s | viscosity (298.15 K, 101 kPa, x1 = 0.0007841, x3 = 0.005426): 1.269 ± 0.016 mPa·s | viscosity (298.15 K, 101 kPa, x1 = 0.0008175, x3 = 0.007124): 1.409 ± 0.017 mPa·s | viscosity (298.15 K, 101 kPa, x1 = 0.0009408, x3 = 0.001811): 1.018 ± 0.015 mPa·s | viscosity (298.15 K, 101 kPa, x1 = 0.0009549, x3 = 0.00357): 1.133 ± 0.015 mPa·s | viscosity (298.15 K, 101 kPa, x1 = 0.0009897, x3 = 0.007123): 1.418 ± 0.017 mPa·s | viscosity (298.15 K, 101 kPa, x1 = 0.000999, x3 = 0.005425): 1.276 ± 0.016 mPa·s | viscosity (298.15 K, 101 kPa, x1 = 0.001114, x3 = 0.003569): 1.136 ± 0.015 mPa·s | viscosity (298.15 K, 101 kPa, x1 = 0.001117, x3 = 0.001811): 1.021 ± 0.015 mPa·s | viscosity (298.15 K, 101 kPa, x1 = 0.001181, x3 = 0.005424): 1.28 ± 0.016 mPa·s | viscosity (298.15 K, 101 kPa, x1 = 0.001198, x3 = 0.007121): 1.427 ± 0.017 mPa·s | viscosity (298.15 K, 101 kPa, x1 = 0.00132, x3 = 0.001811): 1.023 ± 0.015 mPa·s | viscosity (298.15 K, 101 kPa, x1 = 0.001321, x3 = 0.003568): 1.143 ± 0.015 mPa·s | viscosity (298.15 K, 101 kPa, x1 = 0.00137, x3 = 0.005423): 1.286 ± 0.016 mPa·s | viscosity (298.15 K, 101 kPa, x1 = 0.001406, x3 = 0.00712): 1.433 ± 0.017 mPa·s | viscosity (298.15 K, 101 kPa, x1 = 0.00149, x3 = 0.00181): 1.03 ± 0.015 mPa·s | viscosity (298.15 K, 101 kPa, x1 = 0.001525, x3 = 0.003568): 1.149 ± 0.015 mPa·s | viscosity (298.15 K, 101 kPa, x1 = 0.001559, x3 = 0.005422): 1.292 ± 0.016 mPa·s | viscosity (298.15 K, 101 kPa, x1 = 0.001622, x3 = 0.007118): 1.441 ± 0.017 mPa·s | viscosity (298.15 K, 101 kPa, x1 = 0.001679, x3 = 0.00181): 1.037 ± 0.015 mPa·s | viscosity (298.15 K, 101 kPa, x1 = 0.001728, x3 = 0.003567): 1.158 ± 0.015 mPa·s | viscosity (298.15 K, 101 kPa, x1 = 0.001768, x3 = 0.005421): 1.3 ± 0.016 mPa·s | viscosity (298.15 K, 101 kPa, x1 = 0.001812, x3 = 0.007117): 1.449 ± 0.017 mPa·s

O=S(=O)([N-]S(=O)(=O)C(F)(F)F)C(F)(F)F.[Li+] + O=S(=O)([O-])C(F)(F)F.[Li+] + O
viscosity (298.15 K, 100 kPa, x2 = 0, x1 = 0.112): 5.2 ± 0.4 mPa·s | viscosity (298.15 K, 100 kPa, x2 = 0, x1 = 0.1896): 15.8 ± 1.3 mPa·s | viscosity (298.15 K, 100 kPa, x2 = 0, x1 = 0.2333): 30.7 ± 2.5 mPa·s | viscosity (298.15 K, 100 kPa, x2 = 0, x1 = 0.2547): 42.3 ± 3.4 mPa·s | viscosity (298.15 K, 100 kPa, x2 = 0, x1 = 0.2741): 54.1 ± 4.3 mPa·s | viscosity (308.15 K, 100 kPa, x2 = 0, x1 = 0.112): 4.3 ± 0.3 mPa·s | viscosity (308.15 K, 100 kPa, x2 = 0, x1 = 0.1896): 11.5 ± 0.9 mPa·s | viscosity (308.15 K, 100 kPa, x2 = 0, x1 = 0.2333): 21.5 ± 1.7 mPa·s | viscosity (308.15 K, 100 kPa, x2 = 0, x1 = 0.2547): 29 ± 2.3 mPa·s | viscosity (308.15 K, 100 kPa, x2 = 0, x1 = 0.2741): 36.1 ± 2.9 mPa·s | viscosity (318.15 K, 100 kPa, x2 = 0, x1 = 0.112): 3.4 ± 0.3 mPa·s | viscosity (318.15 K, 100 kPa, x2 = 0, x1 = 0.1896): 8.6 ± 0.7 mPa·s | viscosity (318.15 K, 100 kPa, x2 = 0, x1 = 0.2333): 15.8 ± 1.3 mPa·s | viscosity (318.15 K, 100 kPa, x2 = 0, x1 = 0.2547): 20.9 ± 1.7 mPa·s | viscosity (318.15 K, 100 kPa, x2 = 0, x1 = 0.2741): 25.5 ± 2 mPa·s | viscosity (328.15 K, 100 kPa, x2 = 0, x1 = 0.112): 2.8 ± 0.2 mPa·s | viscosity (328.15 K, 100 kPa, x2 = 0, x1 = 0.1896): 6.6 ± 0.5 mPa·s | viscosity (328.15 K, 100 kPa, x2 = 0, x1 = 0.2333): 12 ± 1 mPa·s | viscosity (328.15 K, 100 kPa, x2 = 0, x1 = 0.2547): 15.6 ± 1.3 mPa·s | viscosity (328.15 K, 100 kPa, x2 = 0, x1 = 0.2741): 18.7 ± 1.5 mPa·s

OC1OC[C@@H](O)[C@H](O)[C@H]1O (some centres not stated) + O + CCCCCC[n+]1ccn(C)c1.[Br-]
viscosity (298.15 K, 101 kPa, x1 = 0.0001973, x3 = 0.001843): 0.957 ± 0.014 mPa·s | viscosity (298.15 K, 101 kPa, x1 = 0.000198, x3 = 0.003653): 1.007 ± 0.015 mPa·s | viscosity (298.15 K, 101 kPa, x1 = 0.0002099, x3 = 0.005424): 1.054 ± 0.015 mPa·s | viscosity (298.15 K, 101 kPa, x1 = 0.0002123, x3 = 0.007151): 1.106 ± 0.015 mPa·s | viscosity (298.15 K, 101 kPa, x1 = 0.0003779, x3 = 0.001843): 0.961 ± 0.014 mPa·s | viscosity (298.15 K, 101 kPa, x1 = 0.0003808, x3 = 0.003652): 1.011 ± 0.015 mPa·s | viscosity (298.15 K, 101 kPa, x1 = 0.0003928, x3 = 0.005423): 1.059 ± 0.015 mPa·s | viscosity (298.15 K, 101 kPa, x1 = 0.0004009, x3 = 0.00715): 1.112 ± 0.015 mPa·s | viscosity (298.15 K, 101 kPa, x1 = 0.0005548, x3 = 0.001843): 0.965 ± 0.014 mPa·s | viscosity (298.15 K, 101 kPa, x1 = 0.000588, x3 = 0.003652): 1.016 ± 0.015 mPa·s | viscosity (298.15 K, 101 kPa, x1 = 0.0005968, x3 = 0.005422): 1.064 ± 0.015 mPa·s | viscosity (298.15 K, 101 kPa, x1 = 0.0005973, x3 = 0.007149): 1.119 ± 0.015 mPa·s | viscosity (298.15 K, 101 kPa, x1 = 0.000739, x3 = 0.001842): 0.97 ± 0.014 mPa·s | viscosity (298.15 K, 101 kPa, x1 = 0.0007594, x3 = 0.003651): 1.02 ± 0.015 mPa·s | viscosity (298.15 K, 101 kPa, x1 = 0.0007857, x3 = 0.007147): 1.124 ± 0.015 mPa·s | viscosity (298.15 K, 101 kPa, x1 = 0.0007911, x3 = 0.005421): 1.069 ± 0.015 mPa·s | viscosity (298.15 K, 101 kPa, x1 = 0.0009323, x3 = 0.001842): 0.974 ± 0.014 mPa·s | viscosity (298.15 K, 101 kPa, x1 = 0.0009495, x3 = 0.00365): 1.025 ± 0.015 mPa·s | viscosity (298.15 K, 101 kPa, x1 = 0.0009642, x3 = 0.00542): 1.074 ± 0.015 mPa·s | viscosity (298.15 K, 101 kPa, x1 = 0.0009957, x3 = 0.007146): 1.13 ± 0.015 mPa·s | viscosity (298.15 K, 101 kPa, x1 = 0.001116, x3 = 0.001842): 0.979 ± 0.014 mPa·s | viscosity (298.15 K, 101 kPa, x1 = 0.001147, x3 = 0.005419): 1.079 ± 0.015 mPa·s | viscosity (298.15 K, 101 kPa, x1 = 0.001153, x3 = 0.003649): 1.029 ± 0.015 mPa·s | viscosity (298.15 K, 101 kPa, x1 = 0.001184, x3 = 0.007144): 1.134 ± 0.015 mPa·s | viscosity (298.15 K, 101 kPa, x1 = 0.0013, x3 = 0.001841): 0.982 ± 0.014 mPa·s | viscosity (298.15 K, 101 kPa, x1 = 0.001326, x3 = 0.003649): 1.034 ± 0.015 mPa·s | viscosity (298.15 K, 101 kPa, x1 = 0.001352, x3 = 0.005418): 1.083 ± 0.015 mPa·s | viscosity (298.15 K, 101 kPa, x1 = 0.001359, x3 = 0.007143): 1.138 ± 0.015 mPa·s | viscosity (298.15 K, 101 kPa, x1 = 0.001475, x3 = 0.001841): 0.986 ± 0.015 mPa·s | viscosity (298.15 K, 101 kPa, x1 = 0.001497, x3 = 0.003648): 1.039 ± 0.015 mPa·s | viscosity (298.15 K, 101 kPa, x1 = 0.001552, x3 = 0.005417): 1.089 ± 0.015 mPa·s | viscosity (298.15 K, 101 kPa, x1 = 0.001588, x3 = 0.007142): 1.143 ± 0.015 mPa·s | viscosity (298.15 K, 101 kPa, x1 = 0.001657, x3 = 0.001841): 0.99 ± 0.015 mPa·s | viscosity (298.15 K, 101 kPa, x1 = 0.001681, x3 = 0.003648): 1.042 ± 0.015 mPa·s | viscosity (298.15 K, 101 kPa, x1 = 0.001708, x3 = 0.005416): 1.09 ± 0.015 mPa·s | viscosity (298.15 K, 101 kPa, x1 = 0.001731, x3 = 0.00714): 1.148 ± 0.015 mPa·s
